{
  "source": "paper PMC10663516",
  "about": "(Scientific Reports, 2023)",
  "key": {"[1]": {"parameters": "method as in PMID 20615965", "conditions": "mice, oral, 14.2 mg/kg; cited from earlier work"}, "BMX": {"target": "T1, BMX (Homo sapiens, UniProt P51813)", "T1 construct": "purchased EMD Millipore", "T1 sequence (P51813 whole entry)": "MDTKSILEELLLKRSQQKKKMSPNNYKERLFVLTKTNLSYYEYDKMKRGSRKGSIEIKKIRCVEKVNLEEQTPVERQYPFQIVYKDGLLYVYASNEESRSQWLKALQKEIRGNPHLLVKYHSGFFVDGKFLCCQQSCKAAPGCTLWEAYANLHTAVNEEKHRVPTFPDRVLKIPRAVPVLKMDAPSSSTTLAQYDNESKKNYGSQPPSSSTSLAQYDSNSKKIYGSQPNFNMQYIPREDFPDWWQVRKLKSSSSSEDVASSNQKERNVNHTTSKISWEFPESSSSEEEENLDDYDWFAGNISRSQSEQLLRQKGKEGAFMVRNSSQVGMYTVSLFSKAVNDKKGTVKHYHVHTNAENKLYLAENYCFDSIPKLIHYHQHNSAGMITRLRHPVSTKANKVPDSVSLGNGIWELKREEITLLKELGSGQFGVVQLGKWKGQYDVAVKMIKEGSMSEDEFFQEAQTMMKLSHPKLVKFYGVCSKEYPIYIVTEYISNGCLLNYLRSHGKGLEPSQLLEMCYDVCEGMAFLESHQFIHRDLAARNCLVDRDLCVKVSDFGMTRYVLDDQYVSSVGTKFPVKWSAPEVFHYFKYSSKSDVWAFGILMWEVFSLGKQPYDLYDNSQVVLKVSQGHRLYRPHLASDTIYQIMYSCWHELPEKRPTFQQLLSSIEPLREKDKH", "assay": "Millipore Kinase Profiler screening panel, BMX", "assay_type": "biochemical", "procedure": "(§1) The Kinase Profiler™ screening panel (EMD Millipore, Burlington, MA, USA) was used to test the inhibitory activity of TL-895 against 270 protein kinases. Kinases were incubated with TL-895 (1 µM) for 20 min to 4 h at room temperature, according to standard kinome screen procedures. […]"}, "[2]": {"assay": "Cytotoxicity by ATP content (CellTiter-Glo)", "assay_type": "cell-based, human", "conditions": "primary human hepatocytes, 24 h", "quoted_text": "(§3) HepG2 cells (human hepatocellular carcinoma [epithelial]) and primary human hepatocytes were cultured in DMEM/F-12 medium supplemented with antibiotics, sodium pyruvate, insulin and 10% fetal calf serum. During the testing steps, the medium was replaced by serum-free media containing bovine serum albumin (BSA) and dexamethasone. All the cultures are incubated at 37 °C in a humidified chamber containing 5% CO2. […] HepG2 and primary hepatocytes were cultured in 96-well tissue culture plates either for luminescence (2E4/well in 100 µL) or pre-coated with collagen I (3.5E4/well in 100 µL, respectively).\n(§4) For the cytotoxicity data, the % values relative (%RV) to the vehicle controls were calculated for each dose level. […] The overall EC50s were the averages of the values obtained from each experiment (PRISM® GraphPad™ Software, Boston, MA)."}, "[3]": {"system": "primary human hepatocytes", "assay": "Cytotoxicity by ATP content (CellTiter-Glo)", "assay_type": "cell-based", "conditions": "hepatocyte EC50 at 24 h", "quoted_text": "as §3, §4"}, "SU-DHL-8-epst": {"system": "SU-DHL-8-epst", "assay": "Cell viability, ATPlite", "assay_type": "cell-based", "conditions": "Homo sapiens, SU-DHL-8-epst (ABC-DLBCL), 72 h", "procedure": "(§2) The potency of TL-895 effects on cell viability was further examined in vitro in a panel of diffuse large B-cell lymphoma (DLBCL) and MCL cell lines, comprising ten germinal B-cell like subtype (GCB)-DLBCL cell lines, six activated B-cell like (ABC)-DLBCL cell lines, and six MCL cell lines (Horizon Discovery Inc, Cambridge MA, USA). Cells were seeded into 384-well plates (500 cells/well) and incubated (37 °C for 24 h) before treatment with varying concentrations of TL-895 for 72 h. ATP levels were analyzed using the ATPlite Luminescence Assay System (Perkin Elmer, UK). Growth inhibition and maximum response were calculated using the Chalice Analyzer (Horizon Discovery Inc)."}, "HU-DHL-1-epst": {"system": "HU-DHL-1-epst", "assay": "Cell viability, ATPlite", "assay_type": "cell-based", "conditions": "Homo sapiens, HU-DHL-1-epst (GCB-DLBCL), 72 h", "procedure": "as §2"}, "U-2932": {"system": "U-2932", "assay": "Cell viability, ATPlite", "assay_type": "cell-based", "conditions": "Homo sapiens, U2932, U-2932 (ABC-DLBCL), 72 h", "procedure": "as §2"}, "REC-1": {"system": "REC-1", "assay": "Cell viability, ATPlite", "assay_type": "cell-based", "conditions": "Homo sapiens, Rec1, REC-1 (MCL), 72 h", "procedure": "as §2"}, "Maver-1": {"system": "Maver-1", "assay": "Cell viability, ATPlite", "assay_type": "cell-based", "conditions": "Homo sapiens, Maver1, Maver-1 (MCL), 72 h", "procedure": "as §2"}, "Mino": {"system": "Mino", "assay": "Cell viability, ATPlite", "assay_type": "cell-based", "conditions": "Homo sapiens, Mino (MCL), 72 h", "procedure": "as §2"}, "JVM-2": {"system": "JVM-2", "assay": "Cell viability, ATPlite", "assay_type": "cell-based", "conditions": "Homo sapiens, JVM-2 (MCL), 72 h", "procedure": "as §2"}, "HT": {"system": "HT", "assay": "Cell viability, ATPlite", "assay_type": "cell-based", "conditions": "Homo sapiens; HT (GCB-DLBCL), 72 h; read-out: Max response (GI %)", "procedure": "as §2"}, "DOHH-2": {"system": "DOHH-2", "assay": "Cell viability, ATPlite", "assay_type": "cell-based", "conditions": "Homo sapiens, DOHH-2 (GCB-DLBCL), 72 h", "procedure": "as §2"}, "SU-DHL-4-epst": {"system": "SU-DHL-4-epst", "assay": "Cell viability, ATPlite", "assay_type": "cell-based", "conditions": "Homo sapiens, SU-DHL-4-epst (GCB-DLBCL), 72 h", "procedure": "as §2"}, "Pfeiffer": {"system": "Pfeiffer", "assay": "Cell viability, ATPlite", "assay_type": "cell-based", "conditions": "Homo sapiens, Pfeiffer (GCB-DLBCL), 72 h", "procedure": "as §2"}, "OCI-Ly18": {"system": "OCI-Ly18", "assay": "Cell viability, ATPlite", "assay_type": "cell-based", "conditions": "Homo sapiens, OCI-Ly18 (GCB-DLBCL), 72 h", "procedure": "as §2"}, "GRANTA-519": {"system": "GRANTA-519", "assay": "Cell viability, ATPlite", "assay_type": "cell-based", "conditions": "Homo sapiens; GRANTA-519 (MCL), 72 h; read-out: Max response (GI %)", "procedure": "as §2"}, "DB": {"system": "DB", "assay": "Cell viability, ATPlite", "assay_type": "cell-based", "conditions": "Homo sapiens; DB (GCB-DLBCL), 72 h; read-out: Max response (GI %)", "procedure": "as §2"}, "OCI-Ly19": {"system": "OCI-Ly19", "assay": "Cell viability, ATPlite", "assay_type": "cell-based", "conditions": "Homo sapiens; OCI-Ly19 (GCB-DLBCL), 72 h; read-out: Max response (GI %)", "procedure": "as §2"}, "Toledo": {"system": "Toledo", "assay": "Cell viability, ATPlite", "assay_type": "cell-based", "conditions": "Homo sapiens, Toledo (GCB-DLBCL), 72 h", "procedure": "as §2"}, "SU-DHL-5-epst": {"system": "SU-DHL-5-epst", "assay": "Cell viability, ATPlite", "assay_type": "cell-based", "conditions": "Homo sapiens; SU-DHL-5-epst (GCB-DLBCL), 72 h; read-out: Max response (GI %)", "procedure": "as §2"}, "Jeko-1": {"system": "Jeko-1", "assay": "Cell viability, ATPlite", "assay_type": "cell-based", "conditions": "Homo sapiens; Jeko-1 (MCL), 72 h; read-out: Max response (GI %)", "procedure": "as §2"}, "Txk": {"target": "T2, Txk (Homo sapiens, UniProt P42681)", "T2 construct": "purchased EMD Millipore", "T2 sequence (P42681 whole entry)": "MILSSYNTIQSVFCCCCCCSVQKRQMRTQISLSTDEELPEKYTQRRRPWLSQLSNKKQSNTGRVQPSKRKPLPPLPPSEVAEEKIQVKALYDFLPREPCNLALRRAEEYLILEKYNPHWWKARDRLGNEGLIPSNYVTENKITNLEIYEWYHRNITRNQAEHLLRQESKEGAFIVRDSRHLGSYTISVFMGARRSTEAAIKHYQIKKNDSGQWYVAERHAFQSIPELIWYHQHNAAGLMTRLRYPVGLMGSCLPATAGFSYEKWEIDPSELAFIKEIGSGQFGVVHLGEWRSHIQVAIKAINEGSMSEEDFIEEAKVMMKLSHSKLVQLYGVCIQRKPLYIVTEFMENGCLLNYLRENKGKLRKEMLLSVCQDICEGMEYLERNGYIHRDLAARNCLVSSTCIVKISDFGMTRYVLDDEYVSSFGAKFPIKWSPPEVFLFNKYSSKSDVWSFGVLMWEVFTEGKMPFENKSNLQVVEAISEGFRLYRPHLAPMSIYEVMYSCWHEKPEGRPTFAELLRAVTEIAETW", "assay": "Millipore Kinase Profiler screening panel, Txk", "assay_type": "biochemical", "procedure": "as §1"}},
  "note": "pIC50: −log10 of the molar value.",
  "data": [
    {"smiles": "C=CC(=O)N1CCC[C@@H](n2nc(-c3ccc(Oc4ccccc4)cc3)c3c(N)ncnc32)C1", "note": "[Ibrutinib]", "values": [
      {"measurement": "Exposure", "setting": "[1]", "result": 569, "unit": "ng·h/mL"}
    ]},
    {"smiles": "C=CC(=O)N1CCC(F)(CNc2ncnc(N)c2-c2ccc(Oc3ccccc3)cc2)CC1", "note": "[TL-895]", "values": [
      {"measurement": "pIC50", "setting": "BMX", "result": 8.30},
      {"measurement": "EC50 at 24 h", "setting": "[2]", "result": 6.4, "unit": "µM"},
      {"measurement": "Cytotoxicity EC50 in primary human hepatocytes relative to IC50 in primary CLL blasts", "setting": "[3]", "result": 32, "unit": "fold"},
      {"measurement": "GI50", "setting": "SU-DHL-8-epst", "result": 23, "unit": "µM"},
      {"measurement": "pIC50", "setting": "SU-DHL-8-epst", "result": 4.59},
      {"measurement": "Emax", "setting": "SU-DHL-8-epst; read-out: Max response (GI %)", "result": 62, "unit": "%"},
      {"measurement": "GI50", "setting": "HU-DHL-1-epst", "result": 20.8, "unit": "µM"},
      {"measurement": "pIC50", "setting": "HU-DHL-1-epst", "result": 4.60},
      {"measurement": "Emax", "setting": "HU-DHL-1-epst; read-out: Max response (GI %)", "result": 73, "unit": "%"},
      {"measurement": "GI50", "setting": "U-2932", "result": 1.97, "unit": "µM"},
      {"measurement": "pIC50", "setting": "U-2932", "result": 5.18},
      {"measurement": "Emax", "setting": "U-2932; read-out: Max response (GI %)", "result": 105, "unit": "%"},
      {"measurement": "GI50", "setting": "REC-1", "result": 4.26, "unit": "µM"},
      {"measurement": "pIC50", "setting": "REC-1", "result": 4.89},
      {"measurement": "Emax", "setting": "REC-1; read-out: Max response (GI %)", "result": 83, "unit": "%"},
      {"measurement": "GI50", "setting": "Maver-1", "result": 27.5, "unit": "µM"},
      {"measurement": "Emax", "setting": "Maver-1; read-out: Max response (GI %)", "result": 53, "unit": "%"},
      {"measurement": "GI50", "setting": "Mino", "result": 5.58, "unit": "µM"},
      {"measurement": "pIC50", "setting": "Mino", "result": 4.85},
      {"measurement": "Emax", "setting": "Mino; read-out: Max response (GI %)", "result": 88, "unit": "%"},
      {"measurement": "GI50", "setting": "JVM-2", "result": 6.81, "unit": "µM"},
      {"measurement": "pIC50", "setting": "JVM-2", "result": 4.75},
      {"measurement": "Emax", "setting": "JVM-2; read-out: Max response (GI %)", "result": 135, "unit": "%"},
      {"measurement": "Emax", "setting": "HT", "result": 17, "unit": "%"},
      {"measurement": "GI50", "setting": "DOHH-2", "result": 9.39, "unit": "µM"},
      {"measurement": "pIC50", "setting": "DOHH-2", "result": 4.94},
      {"measurement": "Emax", "setting": "DOHH-2; read-out: Max response (GI %)", "result": 130, "unit": "%"},
      {"measurement": "GI50", "setting": "SU-DHL-4-epst", "result": 10.6, "unit": "µM"},
      {"measurement": "pIC50", "setting": "SU-DHL-4-epst", "result": 4.92},
      {"measurement": "Emax", "setting": "SU-DHL-4-epst; read-out: Max response (GI %)", "result": 94, "unit": "%"},
      {"measurement": "GI50", "setting": "Pfeiffer", "result": 19.6, "unit": "µM"},
      {"measurement": "pIC50", "setting": "Pfeiffer", "result": 4.68},
      {"measurement": "Emax", "setting": "Pfeiffer; read-out: Max response (GI %)", "result": 99, "unit": "%"},
      {"measurement": "GI50", "setting": "OCI-Ly18", "result": 18.6, "unit": "µM"},
      {"measurement": "pIC50", "setting": "OCI-Ly18", "result": 4.65},
      {"measurement": "Emax", "setting": "OCI-Ly18; read-out: Max response (GI %)", "result": 68, "unit": "%"},
      {"measurement": "Emax", "setting": "GRANTA-519", "result": 50, "unit": "%"},
      {"measurement": "Emax", "setting": "DB", "result": 25, "unit": "%"},
      {"measurement": "Emax", "setting": "OCI-Ly19", "result": 36, "unit": "%"},
      {"measurement": "GI50", "setting": "Toledo", "result": 3.84, "unit": "µM"},
      {"measurement": "pIC50", "setting": "Toledo", "result": 5.29},
      {"measurement": "Emax", "setting": "Toledo; read-out: Max response (GI %)", "result": 195, "unit": "%"},
      {"measurement": "Emax", "setting": "SU-DHL-5-epst", "result": 42, "unit": "%"},
      {"measurement": "Emax", "setting": "Jeko-1", "result": 42, "unit": "%"},
      {"measurement": "pIC50", "setting": "Txk", "result": 7.21}
    ]}
  ]
}
